The structures appear in SMILES notation.

For orientation: melting point means the temperature of the solid-liquid transition. Regarding `CC(=O)OCC1OC(n2c(Cl)c(C#N)c3cc(Cl)c(Cl)cc32)C(O)C1O` (stereo unspecified), the melting point fell in the range of 103 to 104 °C.
Compound `COc1cc2[nH]cc(C(=O)C(Cl)(Cl)Cl)c2cc1Br` came in with a melting point of 185 to 190 °C.
`COc1cc(CO)ccc1OCc1nc(-c2ccccc2)sc1C`: the melting point lay within 134 to 135 °C.
For `CCn1c(=O)oc2cc(N3C[C@H](C(N)=O)OC3=O)ccc21` the value was 234 to 236 °C; for `O=C1NN=C(c2cccc(Br)c2)CC1O` (stereo unspecified), 158 to 161 °C.
For the compound `Cc1ccccc1CC1CNC(=O)O1` (stereo unspecified), the melting point was 121 to 122 °C.
`CC(CC(O)(C(=O)Nc1ccc2c(c1)COC2=O)C(F)(F)F)c1ccccc1` (stereo unspecified): the melting point lay in the range of 166 to 168 °C.
Turning to `COc1cc2c(c3c1OC(C)(C)C3)C(c1ccc(NS(C)(=O)=O)cc1)=NC(C)(C)C2`, the melting point fell in the range of 235 to 237 °C.
The same measure for `C#CC(C)(C)Oc1ccc(-c2ccnc(C)c2)cc1`: 37 to 40 °C; for `O=S(=O)(c1ccc(Cl)cc1)C(c1cc(F)ccc1F)c1cc(CO)ncc1Br` (stereo unspecified): 172 to 173 °C.
For the compound `Cc1cc(F)ccc1-c1nc(N[C@H]2CC[C@H](O)CC2)nc2c1ccc(=O)n2-c1c(F)cccc1F`, the melting point lay in the range of 158 to 160 °C.
The compound `O=[N+]([O-])c1cc(Cl)c(Cl)c(Cl)c1Cl` came in with a melting point of 41 to 44 °C.
For `CC1C(=O)N(C)C(=O)N(C)C1=O` the value was 83 to 85 °C; for `CCN(CC)CCN1CCN(c2ccc(N3C[C@H](CNC(C)=O)OC3=O)cc2F)CC1`, 131 to 133 °C; for `O=C1NCCN1c1nc(-c2ccc(Br)cc2)cs1`, 230 to 233 °C.
With `Cn1nnnc1-c1cn(C)c2cc(C(F)(F)F)ccc2c1=O`, the melting point was 220 to 221 °C.
Compound `CCN(C)C(=O)c1cnn(-c2cccc(C#N)c2)c1C#N` came in with a melting point of 185 to 187 °C.
Compound `CCOC(=O)c1cnoc1-c1ccc([N+](=O)[O-])cc1` yielded a melting point of 73 to 76 °C.
`CCCC(=O)OCn1cc(F)c(=O)[nH]c1=O` came in with a melting point of 96 to 98 °C.
The compound `Cc1c(O)ccc(-c2ccc(C#N)cc2)c1C` returned a melting point of 174 to 176 °C.
Consider `FC(F)(F)c1ccccc1-c1cccc(C=NNC(=S)NN2CCCC2)n1`, for which the melting point fell in the range of 142 to 146 °C.
Regarding `Cc1ccc(-c2ccc3c(c2)C=C(C(=O)Nc2ccc(C#N)cc2)CCO3)cc1`, the melting point lay within 187 to 189 °C.
Compound `COc1cc(Cl)nn2c(-c3ccnc(N)c3)c(-c3ccc(F)c(C)c3)nc12` showed a melting point of 200 to 201 °C.
Compound `CCCCCCCCCCCCCCCCCCOCCO` came in with a melting point of 39 to 41 °C.
Compound `O=c1nc(-c2ccnc(C3CNCCO3)c2)sc2ccccc12` (stereo unspecified) returned a melting point of 157 to 158 °C.
As for `CC1OC(O)CC(NC(=O)C(F)(F)F)C1C` (stereo unspecified), the melting point lay within 132 to 134 °C.
For `Cc1cc2c(c3c1C(c1ccc(C(C)C)cc1)CO3)CCCC2` (stereo unspecified) the value was 54 to 55 °C; for `Cc1ccc(-c2cc3ccc(C(=O)O)cc3o2)cc1`, 270 to 272 °C; for `COC(=O)[C@H](O)[C@@H](N)c1ccc(C(N)=O)cc1`, 206 °C.
Turning to `COc1cc(OCc2ccccn2)ccc1/C=C/c1cc(/C=C/c2ccc3nccnc3c2)[nH]n1`, the melting point was in the range of 205 to 213 °C.
In the case of `COc1ccccc1Cc1nc2ccccc2c(=O)n1CCCl`, the melting point is 109 to 111 °C.
In turn, `O=C1NC(=O)C(c2ccc(NC(=O)c3ccccc3)cc2)S1` (stereo unspecified) returned a melting point of 240 to 245 °C.
Compound `CC(C)(C)CCNc1cccc(-c2ccnc3c(C(=O)c4cccs4)cnn23)c1` registered a melting point of 156 to 158 °C.
Compound `CCOC(=O)C1=C(C)NC(c2cncs2)=NC1c1ccc(F)cc1Cl` (stereo unspecified) returned a melting point of 121 to 125 °C.
As for `CCCCCc1ccc(-c2ccc(C(C)OC(=O)CCC)cc2)cc1` (single isomer, unassigned; (+)), the melting point came out at 38.1 °C.
For `CCn1c(=O)c(-c2c(Cl)cccc2Br)cc2cnc(Nc3ccccc3)nc21` the value was 210 to 214 °C; for `CSc1cc(Cl)ccc1C(=O)CC#N`, 139 to 141 °C.
Turning to `FC(F)(F)c1cccc(N=c2ccn3ccccc3c2)c1`, the melting point is 134 to 135 °C.
In turn, `CC(C)(C)OC(=O)N1CCN(C(=O)SCc2ccc(OCc3ccc(F)cc3)cc2)CC1` gave a melting point of 123 to 124 °C.
Regarding `OCc1cc(Cl)c(N=C2NCCN2)c(Cl)c1`, the melting point was in the range of 208 to 210 °C.
The same measure for `CN1CCC[C@H]1Cc1cc2cccnc2[nH]1`: 130 to 131 °C; for `CCNc1nc2ccc(CCc3ncc[nH]3)cc2o1`: 204 to 206 °C; for `CC1=CC(=O)C(C)=C(CCC(C)(C)COc2ccc(CC3SC(=O)NC3=O)cc2)C1=O` (stereo unspecified): 173 °C.
Regarding `N#Cc1cc(F)cc(-c2cc([N+](=O)[O-])c3c(c2)C2(CCCCC2)C(=O)N3)c1`, the melting point came to 196 °C.
The same measure for `CCN(CC)C(=O)CCC(=O)Nc1ccc(C(=O)N2CCCCc3ccccc32)cc1`: 165 to 167 °C; for `COc1ccc(C)cc1-c1ccc(S(=O)(=O)N2c3ccccc3CC2C(=O)NCc2ccc(C(=O)O)cc2)cc1` (stereo unspecified): 153 to 165 °C; for `CSc1nccc(-c2c3cccnc3n3c(NC(C)=O)nccc23)n1`: 160 to 162 °C.
For the compound `CNC(=O)c1ccccc1CCc1ccc(Br)cc1`, the melting point fell in the range of 138 to 141 °C.
Take `O=C(O)C(Cl)=C(Cl)C(O)=NCCCc1ccc(Cl)cc1`: the melting point was 72 to 73 °C.
The same measure for `COc1ccc(OS(=O)(=O)c2ccc(C)cc2)c(C(C)C)c1`: 85.1 °C; for `COCOc1ccc(CCNC(=O)/C(C#N)=C/c2cccnc2)cc1`: 105 to 106 °C.
`O=C(O)C1=C(c2ccccc2)c2cc(Br)ccc2CO1`: the melting point is 205 to 206 °C.
Turning to `CC1(C)Oc2ccc(C#N)cc2C(Sc2ccccn2)C1O` (stereo unspecified), the melting point is 101 to 103 °C.
As to `Oc1ccc2c(c1)C[C@H](O)[C@H](O)C2` (relative stereo), the melting point was 193 to 196 °C.
`CC(N=c1cccccc1NC(C)c1ccccc1)c1ccccc1` (stereo unspecified) yielded a melting point of 74 °C.
The compound `COc1c(S(=O)(=O)Cl)ccc(Cl)c1C` gave a melting point of 88 to 92 °C.
The same measure for `Cc1ccc(S(=O)(=O)Nc2ccc(Oc3ccc4nc(COc5ccc(CC6SC(=O)NC6=O)cc5)n(C)c4c3)cc2)cc1` (stereo unspecified): 132 to 136 °C; for `O[C@H]1CC[C@H](Nc2nccc(-c3c[nH]c4ccccc34)n2)CC1`: 258 to 260 °C; for `CCOC(=O)c1ccc(OCC#Cc2ccccc2)c(OC)c1`: 62 to 65 °C.
Take `Cn1nc(C(F)(F)F)n(-c2ccc([N+](=O)[O-])cc2Cl)c1=S`: the melting point was 152 to 155 °C.
In the case of `Cn1ncnc1-c1cc(S(C)(=O)=O)c2[nH]c(=O)ccc2c1`, the melting point fell in the range of 226 to 232 °C.
Compound `CCc1c(C)[nH]c2cc(OCCN(C)C)c(Cl)cc2c1=O` displayed a melting point of 227 to 230 °C.
For `NCc1cccnc1C1CCN(c2cc3c(cc2F)c(=O)c(C(=O)O)cn3C2CC2)C1` (stereo unspecified) the value was 246 to 248 °C; for `N#Cc1ccc2[nH]c(C(=O)C34CC5CC(CC(C5)C3)C4)cc2c1`, 250 to 252 °C.
The same measure for `COc1cc2c(OC)nc3c4ccccc4nc(OC)c3c2cc1OC`: 173 to 175 °C.
The same measure for `CC1(C)Oc2c(ccc3oc(C(=O)O)cc(=O)c23)-c2cc(Cl)ccc21`: 262 to 264 °C.
`CC(C)c1cccc(C(C)C)c1NC(=O)Nc1c(-c2cccc(O)c2)c2cccnc2n(C)c1=O` came in with a melting point of 152 to 155 °C.
Take `Fc1ccc2[nH]cc(CCCNCCOc3cccc4[nH]ccc34)c2c1`: the melting point was in the range of 70 to 73 °C.
In turn, `N#CCOC(=O)c1ccc2nc3ccc(O)cc3c(=O)n2c1` displayed a melting point of 260 to 262 °C.
`Nc1nc(-c2cc(Cl)ccc2Cl)nc(N(CCO)CCO)n1` gave a melting point of 199 to 200 °C.
In turn, `CN(C)C(=O)OCCOc1ccc(CC(NC(=O)OC(C)(C)C)C(O)CNCC(O)C(Cc2ccccc2)NC(=O)O)cc1` (stereo unspecified) yielded a melting point of 128 to 132 °C.
In turn, `CNC(=O)C(Cc1ccc(OC)cc1)NC(=O)C(CC(C)C)C(CC(=O)O)SC(C)=O` (stereo unspecified) registered a melting point of 92 to 95 °C.
The same measure for `CO[C@H]1O[C@@H](C)[C@H]2[C@@H]1C[C@H]1CCCC[C@@H]1[C@H]2CS(=O)(=O)c1ccccc1`: 136 to 137 °C; for `CCC1CC(=O)N(Cc2ccc(N)cc2)N=C1c1ccc(OC)c(OC)c1` (stereo unspecified): 49 °C.
`CN(C)C1CCN(c2nccc(Oc3ccc(NC(=O)c4cc(F)cc(N5CCOCC5)c4)c4ccccc34)n2)C1` (stereo unspecified) registered a melting point of 106 to 108 °C.
The compound `Nc1cc(Br)nc(Cl)c1OC(F)F` returned a melting point of 138 to 140 °C.
The same measure for `COc1cc(Cc2cnc(N)nc2N)cc(C=Cc2ccccc2)c1OC`: 226 °C; for `CC(OC(=O)c1ccccc1)C(N)=S` (stereo unspecified): 100 to 101 °C.
On to `COC(=O)NC1=NC(c2ccc(C(C)C)cc2)CCN1` (stereo unspecified), for which the melting point lay within 195 to 197 °C.
The compound `O=c1[nH]c2c(Cl)cccc2c(=O)n1CCCN1CC2CCC(C1)N2c1ccc(Cl)cc1` yielded a melting point of 167 to 169 °C.
In the case of `CC1(C)Oc2ccc(CC3SC(=O)NC3=O)cc2CC1c1ccccc1` (stereo unspecified), the melting point lay in the range of 53 to 68 °C.
`COC(=O)c1ccc(C(=O)c2cccnc2)cc1`: the melting point was 144 to 146 °C.
As to `CC12CCC(C(=Cc3ccc(COc4ccccc4C(=O)O)cc3)C1=O)C2(C)C` (stereo unspecified), the melting point was determined as 128 °C.
The same measure for `Nc1c(CC(=O)O)cccc1Oc1ccccc1F`: 122 to 123 °C.
With `C=CCNC(=O)ON=C1SCOC1C` (stereo unspecified), the melting point fell in the range of 66 to 67.5 °C.
With `c1coc(CNCc2ccc(-c3cc4ncnc(Nc5ccc6[nH]ccc6c5)c4s3)cc2)c1`, the melting point lay within 125 to 134 °C.
In turn, `Cc1nc2n(c(=O)c1CCN1CCC(C(O)c3ccc(F)cc3)CC1)CCS2` (stereo unspecified) gave a melting point of 204 °C.
Regarding `COc1c(Cl)ccc(-c2cc(N)c(Cl)c(C(=O)NOCc3ccccc3)n2)c1F`, the melting point was in the range of 166 to 169 °C.
`Cc1ccc(Br)c2occc12` yielded a melting point of 32 to 33 °C.
Turning to `Cc1cccc(S(=O)(=O)N2Cc3ccccc3C2)c1`, the melting point lay within 175 to 177 °C.
`O=C(CCc1ccccc1)c1cccnc1Nc1ccc(F)cc1` had a melting point of 100 to 102 °C.

For the origin of these results see a melting point compilation (Tetko et al.; mined from patent text by program, amines drawn as free bases though some values may be those of a salt).
